Measurements reported in ChEMBL document CHEMBL1201862, “PubChem BioAssay data set” (2004).
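Dose response: 5 concentrations. Exposure: 48 h. Format: 96-well plates. Endpoint: linear interpolation; highest concentration if not reached. GI50 marks 50% less growth.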 Calls of active or inactive are those of the source. Rule as the data show it: active = GI50 up to about 1.1 µM and inactive = higher.

Tests used:
Assay in all cases: growth of human tumour cells (NCI), 48 h
SNB-75 = system: SNB-75
A549 = system: A549
HOP-92 = system: HOP-92
SNB-19 = system: SNB-19
HCC 2998 = system: HCC 2998
NCI/ADR-RES = system: NCI/ADR-RES
IGROV-1 = system: IGROV-1
NCI-H226 = system: NCI-H226
SF-268 = system: SF-268
HCT-15 = system: HCT-15
HOP-62 = system: HOP-62
SK-MEL-5 = system: SK-MEL-5
A498 = system: A498
SF-295 = system: SF-295
OVCAR-8 = system: OVCAR-8
MDA-MB-435 = system: MDA-MB-435
SK-OV-3 = system: SK-OV-3
SK-MEL-28 = system: SK-MEL-28
MOLT-4 = system: MOLT-4
RXF 393 = system: RXF 393

Compound | GI50 (SNB-75) | GI50 (A549) | GI50 (HOP-92) | GI50 (SNB-19) | GI50 (HCC 2998) | GI50 (NCI/ADR-RES) | GI50 (IGROV-1) | GI50 (NCI-H226) | GI50 (SF-268) | GI50 (HCT-15) | GI50 (HOP-62) | GI50 (SK-MEL-5) | GI50 (A498) | GI50 (SF-295) | GI50 (OVCAR-8) | GI50 (MDA-MB-435) | GI50 (SK-OV-3) | GI50 (SK-MEL-28) | GI50 (MOLT-4) | GI50 (RXF 393)
Fc1ccc(C(OCCN2CCC3CCC(C2)N3CCCc2ccccc2)c2ccc(F)cc2)cc1 (centres undefined) | 2.4 µM (inactive) | 6.15 µM (inactive) | 5.45 µM (inactive) | 10.1 µM (inactive) | 2.08 µM (inactive) | 3.62 µM (inactive) | 4.97 µM (inactive) | 3.94 µM (inactive) | 6.62 µM (inactive) | 3.76 µM | 7.38 µM (inactive) | 1.76 µM (inactive) | 3.02 µM (inactive) | 2.77 µM (inactive) | 2.24 µM (inactive) | 2.61 µM (inactive) | 10.4 µM (inactive) | 2.52 µM (inactive) | 2.58 µM (inactive) | 
Cc1nn(-c2cc(Cl)ccc2[N+](=O)[O-])c(C)c1Cl | 86.5 µM (inactive) | 71.1 µM (inactive) |  | > 100 µM (inactive) | 38.6 µM (inactive) | 55.8 µM (inactive) | > 100 µM (inactive) | 65.8 µM (inactive) | > 100 µM (inactive) | 40.6 µM | > 100 µM (inactive) | 81.7 µM (inactive) | > 100 µM (inactive) | > 100 µM (inactive) | > 100 µM (inactive) | > 100 µM (inactive) | > 100 µM (inactive) | > 100 µM (inactive) | 13.6 µM (inactive) | 2.72 µM (inactive)
COP(=O)(CP(=O)(OC)OCCC(C)CCC=C(C)C)OC (centres undefined) | > 100 µM (inactive) | > 100 µM (inactive) |  | > 100 µM (inactive) | > 100 µM (inactive) | > 100 µM (inactive) | > 100 µM (inactive) | > 100 µM (inactive) | > 100 µM (inactive) | > 100 µM | 69.7 µM (inactive) | > 100 µM (inactive) | > 100 µM (inactive) | > 100 µM (inactive) | > 100 µM (inactive) | > 100 µM (inactive) | > 100 µM (inactive) | > 100 µM (inactive) | > 100 µM (inactive) | > 100 µM (inactive)
CC1=C(C)C(=O)C(C2=CC(=O)c3ccccc3C2=O)=C(C2=CC(=O)c3ccccc3C2=O)C1=O | 13.2 µM (inactive) | 19.4 µM (inactive) |  | 4.54 µM (inactive) | 6.95 µM (inactive) | 1.68 µM (inactive) | 7.31 µM (inactive) | 13.1 µM (inactive) | 8.15 µM (inactive) | 0.646 µM | 12.4 µM (inactive) | 1.4 µM (inactive) | 23.4 µM (inactive) | 12.3 µM (inactive) | 3.64 µM (inactive) | 0.352 µM (active) | 20.2 µM (inactive) | 7.62 µM (inactive) |  | 2.52 µM (inactive)
COC(=O)c1ccc(C(=O)NC(Cc2ccc(Oc3cc(CC(NC(=O)c4ccccc4C(=O)OC)C(=O)OC)ccc3OC)cc2)C(=O)OC)cc1 (centres undefined) | 42.6 µM (inactive) | > 100 µM (inactive) | > 100 µM (inactive) | 31.6 µM (inactive) | > 100 µM (inactive) | > 100 µM (inactive) | > 100 µM (inactive) | > 100 µM (inactive) | > 100 µM (inactive) | > 100 µM | 36.3 µM (inactive) |  | 72.6 µM (inactive) | 43.9 µM (inactive) | 86.3 µM (inactive) | > 100 µM (inactive) | 67 µM (inactive) | > 100 µM (inactive) | > 100 µM (inactive) | 
CCC(C)C(NC(=O)C(CCCC[N+](=N)N)NC(=O)C(CCCC[N+](=N)N)NC(=O)c1ccc(OC)cc1)C(=O)NC(CCCC[N+](=N)N)C(=O)N1CCCC1C(=O)NC(CCCCN)C(=O)NC(CC(C)C)C(N)=O (centres undefined) | > 100 µM (inactive) | > 100 µM (inactive) |  | > 100 µM (inactive) | > 100 µM (inactive) | > 100 µM (inactive) |  | > 100 µM (inactive) | > 100 µM (inactive) | > 100 µM | > 100 µM (inactive) | > 100 µM (inactive) | > 100 µM (inactive) | > 100 µM (inactive) | > 100 µM (inactive) | > 100 µM (inactive) | > 100 µM (inactive) | > 100 µM (inactive) | > 100 µM (inactive) | > 100 µM (inactive)
O=c1[nH]nc(Cc2ccccc2)n1CCO |  | > 100 µM (inactive) | > 100 µM (inactive) | > 100 µM (inactive) | > 100 µM (inactive) | > 100 µM (inactive) | > 100 µM (inactive) | > 100 µM (inactive) | > 100 µM (inactive) | > 100 µM |  | > 100 µM (inactive) | > 100 µM (inactive) | > 100 µM (inactive) | > 100 µM (inactive) | > 100 µM (inactive) | > 100 µM (inactive) | > 100 µM (inactive) | > 100 µM (inactive) | 
COc1ccccc1-n1nnc2c(N)nc(N)nc21 | > 100 µM (inactive) | > 100 µM (inactive) | > 100 µM (inactive) | > 100 µM (inactive) |  | > 100 µM (inactive) | > 100 µM (inactive) | > 100 µM (inactive) | > 100 µM (inactive) | > 100 µM | > 100 µM (inactive) | > 100 µM (inactive) | > 100 µM (inactive) | > 100 µM (inactive) | > 100 µM (inactive) | > 100 µM (inactive) | > 100 µM (inactive) | > 100 µM (inactive) | > 100 µM (inactive) | 
O=C(NNC(=S)NC1CCCCC1)C12CC3CC(CC(C3)C1)C2 | 52.2 µM (inactive) | > 100 µM (inactive) |  | > 100 µM (inactive) | > 100 µM (inactive) | > 100 µM (inactive) | > 100 µM (inactive) | > 100 µM (inactive) | > 100 µM (inactive) | > 100 µM | > 100 µM (inactive) | > 100 µM (inactive) | > 100 µM (inactive) | > 100 µM (inactive) | > 100 µM (inactive) | > 100 µM (inactive) | > 100 µM (inactive) | > 100 µM (inactive) | > 100 µM (inactive) | > 100 µM (inactive)
CC(C)Nc1n[nH]c(=O)n1C(C)C | 99.3 µM (inactive) | > 100 µM (inactive) | > 100 µM (inactive) | > 100 µM (inactive) |  | > 100 µM (inactive) | > 100 µM (inactive) | 81.5 µM (inactive) | > 100 µM (inactive) | > 100 µM | > 100 µM (inactive) | > 100 µM (inactive) | > 100 µM (inactive) | > 100 µM (inactive) | > 100 µM (inactive) | > 100 µM (inactive) | > 100 µM (inactive) | > 100 µM (inactive) | > 100 µM (inactive) | 
CC(=O)OCC(=O)OC[C@H](OCc1ccccc1)[C@@H]1[C@H](OC(C)=O)C(=O)N1Cc1ccccc1 | > 100 µM (inactive) | > 100 µM (inactive) | > 100 µM (inactive) | > 100 µM (inactive) |  | > 100 µM (inactive) | > 100 µM (inactive) | > 100 µM (inactive) | > 100 µM (inactive) | > 100 µM | > 100 µM (inactive) | > 100 µM (inactive) | > 100 µM (inactive) | > 100 µM (inactive) | > 100 µM (inactive) | > 100 µM (inactive) | > 100 µM (inactive) | > 100 µM (inactive) | > 100 µM (inactive) | 
COc1ccc(C2=C(N)c3cc(OC)ccc3C2=O)cc1 | 16.1 µM (inactive) | > 100 µM (inactive) | > 100 µM (inactive) | 24.5 µM (inactive) | > 100 µM (inactive) | 88.7 µM (inactive) | > 100 µM (inactive) | > 100 µM (inactive) | 47.3 µM (inactive) | > 100 µM | > 100 µM (inactive) | > 100 µM (inactive) | > 100 µM (inactive) | > 100 µM (inactive) | > 100 µM (inactive) | > 100 µM (inactive) | > 100 µM (inactive) | > 100 µM (inactive) | > 100 µM (inactive) | 
O=c1[nH]nc(Cc2ccccc2)n1/N=C/c1ccco1 | > 100 µM (inactive) | > 100 µM (inactive) |  | > 100 µM (inactive) | > 100 µM (inactive) | > 100 µM (inactive) |  | > 100 µM (inactive) | > 100 µM (inactive) | > 100 µM | > 100 µM (inactive) |  | 45.9 µM (inactive) | > 100 µM (inactive) | > 100 µM (inactive) | > 100 µM (inactive) | > 100 µM (inactive) | > 100 µM (inactive) | 99.5 µM (inactive) | 24 µM (inactive)
COc1cc2c(cc1OC)C1c3ccccc3CCCN1CC2 (centres undefined) | > 100 µM (inactive) | > 100 µM (inactive) | 33 µM (inactive) | > 100 µM (inactive) | > 100 µM (inactive) | > 100 µM (inactive) | > 100 µM (inactive) | > 100 µM (inactive) | > 100 µM (inactive) | > 100 µM | > 100 µM (inactive) | > 100 µM (inactive) | > 100 µM (inactive) | 47.6 µM (inactive) | > 100 µM (inactive) | > 100 µM (inactive) | > 100 µM (inactive) | > 100 µM (inactive) | > 100 µM (inactive) | 
C[C@@H](C1CC[C@H]2[C@@H]3[C@@H]4O[C@@H]4[C@@]4(O)CC=CC(=O)[C@]4(C)[C@H]3C[C@H](O)[C@]12C)[C@H]1C[C@]2(C)O[C@]2(C)C(=O)O1 (some centres undefined) | > 100 µM (inactive) | > 100 µM (inactive) | > 100 µM (inactive) | > 100 µM (inactive) | > 100 µM (inactive) | > 100 µM (inactive) | > 100 µM (inactive) | > 100 µM (inactive) | > 100 µM (inactive) | > 100 µM |  | > 100 µM (inactive) | > 100 µM (inactive) | > 100 µM (inactive) | > 100 µM (inactive) | > 100 µM (inactive) | > 100 µM (inactive) | > 100 µM (inactive) | > 100 µM (inactive) | 
